Laboratory results reported in ChEMBL document CHEMBL3046035, “Synthesis and biological evaluation of novel 4,5-dihydropyrazole derivatives as potent anticancer and antimicrobial agents” (Med Chem Res, 2013).
≈ marks a conversion by molar mass, not a printed value.

What was measured:
Candida tropicalis = assay: Antimicrobial activity against Candida tropicalis ATCC 1369 assessed as growth inhibition after 24 hr by broth microdilution method; format: functional; settings: ATCC 1369, 24 h
Pseudomonas aeruginosa = assay: Antimicrobial activity against Pseudomonas aeruginosa ATCC 10145 assessed as growth inhibition after 24 hr by broth microdilution method; format: functional; settings: ATCC 10145, 24 h
Enterococcus faecalis = assay: Antimicrobial activity against Enterococcus faecalis ATCC 14506 assessed as growth inhibition after 24 hr by broth microdilution method; format: functional; settings: ATCC 14506, 24 h
Klebsiella pneumoniae = assay: Antimicrobial activity against Klebsiella pneumoniae ATCC 10031 assessed as growth inhibition after 24 hr by broth microdilution method; format: functional; settings: ATCC 10031, 24 h
Staphylococcus aureus = assay: Antimicrobial activity against Staphylococcus aureus ATCC 11632 assessed as growth inhibition after 24 hr by broth microdilution method; format: functional; settings: ATCC 11632, 24 h
Bacillus subtilis = assay: Antimicrobial activity against Bacillus subtilis ATCC 60511 assessed as growth inhibition after 24 hr by broth microdilution method; format: functional; settings: ATCC 60511, 24 h
MCF7 = assay: Anticancer activity against Homo sapiens (human) MCF7 cells assessed as inhibition of cell viability after 96 hr by MTT assay; format: functional, cell-based; settings: MCF7, 96 h
A549 = assay: Anticancer activity against Homo sapiens (human) A549 cells assessed as inhibition of cell viability after 96 hr by MTT assay; format: functional, cell-based; settings: A549, 96 h
HeLa = assay: Anticancer activity against Homo sapiens (human) HeLa cells assessed as inhibition of cell viability after 96 hr by MTT assay; format: functional, cell-based
Aspergillus niger = assay: Antimicrobial activity against Aspergillus niger ATCC 6275 assessed as growth inhibition after 24 hr by broth microdilution method; format: functional; settings: ATCC 6275, 24 h
A2780 = assay: Anticancer activity against Homo sapiens (human) A2780 cells assessed as inhibition of cell viability after 96 hr by MTT assay; format: functional, cell-based; settings: A2780, 96 h
Saccharomyces cerevisiae = assay: Antimicrobial activity against Saccharomyces cerevisiae ATCC 9763 assessed as growth inhibition after 24 hr by broth microdilution method; format: functional; settings: ATCC 9763, 24 h
Escherichia coli = assay: Antimicrobial activity against Escherichia coli ATCC 10536 assessed as growth inhibition after 24 hr by broth microdilution method; format: functional; settings: ATCC 10536, 24 h
BGC-823 = assay: Anticancer activity against Homo sapiens (human) BGC823 cells assessed as inhibition of cell viability after 96 hr by MTT assay; format: functional, cell-based; settings: BGC-823, 96 h

Row | Compound | MIC (Candida tropicalis) [µg/mL] | MIC (Pseudomonas aeruginosa) [µg/mL] | MIC (Enterococcus faecalis) [µg/mL] | MIC (Klebsiella pneumoniae) [µg/mL] | MIC (Staphylococcus aureus) [µg/mL] | MIC (Bacillus subtilis) [µg/mL] | IC50 (MCF7) [µM] | IC50 (A549) [µM] | IC50 (HeLa) [µM] | MIC (Aspergillus niger) [µg/mL] | IC50 (A2780) [µM] | MIC (Saccharomyces cerevisiae) [µg/mL] | MIC (Escherichia coli) [µg/mL] | IC50 (BGC-823) [µM]
1 | O=C(Cc1csc(N2N=C(c3ccccc3)CC2c2c(F)cccc2F)n1)N/N=C/c1c(F)cccc1F (centres undefined) | 4 (≈ 7.44 µM) | 8 (≈ 14.9 µM) | 16 (≈ 29.8 µM) | 8 (≈ 14.9 µM) | 16 (≈ 29.8 µM) | 62.5 (≈ 116 µM) | 1.2 | 0.96 | 4.23 | 16 (≈ 29.8 µM) | 2.54 | 16 (≈ 29.8 µM) | 4 (≈ 7.44 µM) | 1.32
2 | CCOC(=O)Cc1csc(N2N=C(c3ccccc3)CC2c2c(F)cccc2F)n1 (centres undefined) | 31.2 (≈ 73.1 µM) | 8 (≈ 18.7 µM) | 31.2 (≈ 73.1 µM) | 8 (≈ 18.7 µM) | 16 (≈ 37.4 µM) | 31.2 (≈ 73.1 µM) | 2.11 | 4.18 | 6.31 | 62.5 (≈ 146 µM) | 3.91 | 62.5 (≈ 146 µM) | 8 (≈ 18.7 µM) | 3.85
3 | Cc1ccc(-c2csc(N3N=C(c4ccccc4)CC3c3c(F)cccc3F)n2)cc1 (centres undefined) | 125 (≈ 290 µM) | 8 (≈ 18.5 µM) | 8 (≈ 18.5 µM) | 4 (≈ 9.27 µM) | 4 (≈ 9.27 µM) | 4 (≈ 9.27 µM) | 2.5 | 1.21 | 4.86 | 62.5 (≈ 145 µM) | 3.03 | 62.5 (≈ 145 µM) | 8 (≈ 18.5 µM) | 1.2
4 | O=C1CSC(N2N=C(c3ccccc3)CC2c2c(F)cccc2F)=N1 (centres undefined) | 31.2 (≈ 87.4 µM) | 16 (≈ 44.8 µM) | 16 (≈ 44.8 µM) | 16 (≈ 44.8 µM) | 16 (≈ 44.8 µM) | 31.2 (≈ 87.4 µM) | 1.94 | 4.58 | 6.45 | 31.2 (≈ 87.4 µM) | 5.32 | 31.2 (≈ 87.4 µM) | 62.5 (≈ 175 µM) | 2.35
5 | Cc1ccc(C2N=C(N3N=C(c4ccccc4)CC3c3c(F)cccc3F)S2)cc1 (centres undefined) | 125 (≈ 298 µM) | 4 (≈ 9.54 µM) | 8 (≈ 19.1 µM) | 4 (≈ 9.54 µM) | 16 (≈ 38.1 µM) | 16 (≈ 38.1 µM) | 3.23 | 4.21 | 6.59 | 62.5 (≈ 149 µM) | 5.14 | 62.5 (≈ 149 µM) | 8 (≈ 19.1 µM) | 3.22
6 | Fc1cccc(F)c1C1CC(c2ccccc2)=NN1c1nc(-c2cccnc2)cs1 (centres undefined) | 16 (≈ 38.2 µM) | 16 (≈ 38.2 µM) | 31.2 (≈ 74.7 µM) | 31.2 (≈ 74.7 µM) | 31.2 (≈ 74.7 µM) | 31.2 (≈ 74.7 µM) | 2.45 | 1.43 | 5.98 | 16 (≈ 38.2 µM) | 3.18 | 31.2 (≈ 74.7 µM) | 16 (≈ 38.2 µM) | 1.11
7 | O=[N+]([O-])c1ccc(C2N=C(N3N=C(c4ccccc4)CC3c3c(F)cccc3F)S2)cc1 (centres undefined) | 125 (≈ 277 µM) | 8 (≈ 17.8 µM) | 16 (≈ 35.5 µM) | 31.2 (≈ 69.4 µM) | 31.2 (≈ 69.4 µM) | 62.5 (≈ 139 µM) | 3.22 | 3.26 | 6.62 | 125 (≈ 277 µM) | 4.35 | 8 (≈ 17.8 µM) | 31.2 (≈ 69.4 µM) | 6.11
8 | Fc1cccc(F)c1C1CC(c2ccccc2)=NN1c1nc(-c2ccc(Br)cc2)cs1 (centres undefined) | 62.5 (≈ 126 µM) | 31.2 (≈ 63 µM) | 8 (≈ 16.1 µM) | 16 (≈ 32.2 µM) | 16 (≈ 32.2 µM) | 8 (≈ 16.1 µM) | 2.14 | 1.93 | 6.12 | 62.5 (≈ 126 µM) | 2.45 | 62.5 (≈ 126 µM) | 31.2 (≈ 63 µM) | 1.34
9 | Cc1ccc(/C=N/NC(=O)Cc2csc(N3N=C(c4ccccc4)CC3c3c(F)cccc3F)n2)cc1 (centres undefined) | 8 (≈ 15.5 µM) | 16 (≈ 31 µM) | 16 (≈ 31 µM) | 125 (≈ 242 µM) | 125 (≈ 242 µM) | 16 (≈ 31 µM) | 1.65 | 1.5 | 5.91 | 16 (≈ 31 µM) | 2.62 | 8 (≈ 15.5 µM) | 125 (≈ 242 µM) | 1.45
10 | OC(Cn1cncn1)(Cn1cncn1)c1ccc(F)cc1F [FLUCONAZOLE] | ≤ 1 | – | – | – | – | – | – | – | – | ≤ 1 | – | ≤ 1 | – | –
11 | CCn1cc(C(=O)O)c(=O)c2cc(F)c(N3CCNCC3)cc21 [NORFLOXACIN] | – | 5 (≈ 15.7 µM) | 5 (≈ 15.7 µM) | ≤ 1 | 5 (≈ 15.7 µM) | ≤ 1 | – | – | – | – | – | – | ≤ 1 | –
12 | Oc1ccc(C2N=C(N3N=C(c4ccccc4)CC3c3c(F)cccc3F)S2)cc1 (centres undefined) | 16 (≈ 38 µM) | 4 (≈ 9.49 µM) | 31.2 (≈ 74.1 µM) | 16 (≈ 38 µM) | 16 (≈ 38 µM) | 31.2 (≈ 74.1 µM) | 4.32 | 3.44 | 6.23 | 31.2 (≈ 74.1 µM) | 3.14 | 16 (≈ 38 µM) | 4 (≈ 9.49 µM) | 1.04
